Source: patent EP1189615B1, “ENDOPARASITICIDAL SYNERGISTIC COMBINATION CONTAINING CYCLIC DEPSIPEPTIDES AND PIPERAZINES” (Bayer HealthCare AG, priority 1999, dated 2000)
Read-outs that look alike come from different tables or passages of the source.

Assays:
Nematospiroides dibius = conditions: Maus
Source text: (§1) Die Durchführung der biologischen Tests erfolgte entsprechend den bekannten Verfahren (Plant et. al. Pesticide Science, 1996, 48, S. 351 ff.).

Heterakis spumosa = conditions: Maus
Source text: as §1

Trichinella spiralis = conditions: in-vitro
Source text: as §1

## C1CNCCN1 [Piperazin]
Nematospiroides dibius; Dosis 2 x 2000 mg/kg
  Wirkung: 2 (Wurmreduktion 75-90 %)
Nematospiroides dibius; Dosis 4 x 1000 mg/kg
  Wirkung: 1 (Wurmreduktion 50-75 %)
Heterakis spumosa; Dosis 4 x 100 mg/kg
  Wirkung: 0 (Wurmreduktion <50 %)
Heterakis spumosa; Dosis 4 x 250 mg/kg
  Wirkung: 1 (Wurmreduktion 50-75 %)
Trichinella spiralis; Konzentration 500 µg/ml
  Wirkung: 0
Trichinella spiralis; Konzentration 1000 µg/ml
  Wirkung: 0-1
